# According to ChEMBL document CHEMBL1201862, “PubChem BioAssay data set” (2004):
# Calls of active or inactive are those of the source.
# What was measured:
# Ephrin type-A receptor 4 = Ephrin type-A receptor 4 (Mus musculus, UniProt Q03137); test: inhibitors of EphA4 binding to KYL peptide, primary screen, biochemical, colorimetric, mouse EphA4 (AID 689); type: functional
# [1] = target: T1, High affinity choline transporter 1 (Homo sapiens, UniProt Q9GZV3); test: CHT inhibitors, dose response, cell-based, 5-point CRC, membrane potential dye (AID 504840); type: functional
# T1 sequence (Q9GZV3 whole entry): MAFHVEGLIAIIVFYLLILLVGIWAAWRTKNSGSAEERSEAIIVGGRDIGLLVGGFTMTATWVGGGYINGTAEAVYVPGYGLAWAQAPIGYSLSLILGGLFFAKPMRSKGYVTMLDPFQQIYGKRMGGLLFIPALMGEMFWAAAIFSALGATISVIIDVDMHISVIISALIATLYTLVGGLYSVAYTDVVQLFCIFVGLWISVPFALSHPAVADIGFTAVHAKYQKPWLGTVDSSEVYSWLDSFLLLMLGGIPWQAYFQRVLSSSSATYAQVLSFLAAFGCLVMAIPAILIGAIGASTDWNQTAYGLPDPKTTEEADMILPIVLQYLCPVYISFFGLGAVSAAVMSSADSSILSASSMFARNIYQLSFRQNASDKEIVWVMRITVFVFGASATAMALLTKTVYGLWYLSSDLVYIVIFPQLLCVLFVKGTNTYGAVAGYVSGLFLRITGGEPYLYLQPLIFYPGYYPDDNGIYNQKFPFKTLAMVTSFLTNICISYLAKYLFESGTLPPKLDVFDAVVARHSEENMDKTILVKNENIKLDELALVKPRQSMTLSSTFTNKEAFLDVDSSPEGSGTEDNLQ
# [2] = HEp-2 cell cytotoxicity, dose response, cytotoxicity control for RSV inhibitor project, HTS (AID 2410); type: functional; details: human respiratory syncytial virus
# Vero [3] = test: host cell cytotoxicity of antiviral hits, dose response, cytotoxicity control for West Nile virus antiviral project, secondary assay (AID 1650); type: functional; details: Chlorocebus sabaeus
# Vero [4] = test: West Nile virus antiviral activity, cell-based, CPE readout (AID 1621); type: functional; details: Chlorocebus sabaeus
# Vero [5] = test: cells; type: functional, cell-based; details: Chlorocebus sabaeus
# [6] = Luminescent dose response cell-based high throughput screening assay for inhibitors of the Janus kinase 2 mutant JAK2V617F. [Related pubchem assays: 1446 (Primary screen.), 1521 (Confirmation assay.), 1486 (Counter screen.)]; type: functional
# [7] = inhibitors of intracellular T. cruzi replication, confirmation, NIH3T3 host cells, beta-gal luminescence (AID 2044); type: functional, cell-based;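 note: intracellular parasites grown in NIH/3T3 mouse fibroblasts as host cells; luminescent beta-galactosidase reporter signal from transgenic T. cruzi replicating inside host cells; inhibitors lower the luminescence signal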
# [8] = cytotoxicity toward NIH3T3 fibroblasts, dose response, counter-screen, cell-based, ATP luminescence, mouse fibroblasts (AID 2010); type: functional;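 note: cells exposed to compound for about 90 hours before reading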
# [9] = Luminescence Cell-Based Dose Retest to Confirm Inhibitors of Cancer Stem Cells. [Related pubchem assays (depositor defined):AID2717, AID2721]; type: functional; details: Homo sapiens
# [10] = target: DNA repair and recombination protein RAD54-like (Homo sapiens, UniProt Q92698); test: inhibitors of human RAD54 branch migration, confirmation, biochemical, fluorescence, cherry-picked samples, dose series (AID 651657); type: functional
# [11] = M. tuberculosis growth inhibition, HTS (AID 449762); type: functional
# [12] = target: T2, Mannose-6-phosphate isomerase (Homo sapiens, UniProt P34949); test: human PMI inhibitors, high substrate, primary screen, biochemical, fluorescence intensity, high mannose 6-phosphate (AID 1220)
# T2 sequence (P34949 whole entry): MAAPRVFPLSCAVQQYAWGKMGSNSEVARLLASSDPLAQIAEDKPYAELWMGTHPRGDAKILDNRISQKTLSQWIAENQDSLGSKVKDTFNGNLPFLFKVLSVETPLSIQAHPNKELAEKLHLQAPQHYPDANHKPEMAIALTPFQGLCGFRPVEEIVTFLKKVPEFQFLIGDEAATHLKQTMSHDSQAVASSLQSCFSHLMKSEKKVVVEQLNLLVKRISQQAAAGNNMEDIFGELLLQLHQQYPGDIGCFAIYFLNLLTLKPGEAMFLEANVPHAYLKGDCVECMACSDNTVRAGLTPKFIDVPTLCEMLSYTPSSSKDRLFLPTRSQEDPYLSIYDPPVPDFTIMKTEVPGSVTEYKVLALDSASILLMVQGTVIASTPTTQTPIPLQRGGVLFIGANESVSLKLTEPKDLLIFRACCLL
# [13] = target: T3, Replicative DNA helicase DnaB (Mycobacterium tuberculosis, UniProt P9WMR3); test: DnaB intein splicing inhibitors, dose response, biochemical, cell-free fluorescence (AID 449749); type: functional
# T3 sequence (P9WMR3 whole entry): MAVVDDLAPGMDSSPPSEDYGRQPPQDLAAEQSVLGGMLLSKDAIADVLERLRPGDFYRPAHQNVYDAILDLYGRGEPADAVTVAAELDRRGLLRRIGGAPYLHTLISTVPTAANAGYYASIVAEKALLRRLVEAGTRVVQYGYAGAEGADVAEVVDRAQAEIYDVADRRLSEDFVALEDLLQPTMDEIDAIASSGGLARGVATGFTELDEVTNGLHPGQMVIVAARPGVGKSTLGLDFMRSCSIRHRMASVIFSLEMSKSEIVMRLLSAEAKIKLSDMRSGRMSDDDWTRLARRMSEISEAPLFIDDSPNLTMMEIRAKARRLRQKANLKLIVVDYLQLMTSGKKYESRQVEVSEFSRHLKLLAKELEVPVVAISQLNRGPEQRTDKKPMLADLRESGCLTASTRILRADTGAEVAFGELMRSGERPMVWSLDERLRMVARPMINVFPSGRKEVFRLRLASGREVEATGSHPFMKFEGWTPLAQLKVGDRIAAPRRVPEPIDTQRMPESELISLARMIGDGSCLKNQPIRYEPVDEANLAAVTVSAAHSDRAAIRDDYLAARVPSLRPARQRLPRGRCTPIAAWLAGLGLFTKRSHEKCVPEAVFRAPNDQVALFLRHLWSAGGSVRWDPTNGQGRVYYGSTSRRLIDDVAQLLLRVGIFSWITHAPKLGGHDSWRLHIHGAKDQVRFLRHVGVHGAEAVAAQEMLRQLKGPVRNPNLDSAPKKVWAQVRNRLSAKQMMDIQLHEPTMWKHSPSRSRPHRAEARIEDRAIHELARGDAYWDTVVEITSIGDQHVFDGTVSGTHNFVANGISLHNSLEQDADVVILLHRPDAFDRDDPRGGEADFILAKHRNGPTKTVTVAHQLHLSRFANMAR
# Protein RecA = target: T4, Protein RecA (Mycobacterium tuberculosis, UniProt P9WHJ3); test: Fluorescence Cell-Free Homogeneous Dose Retest to Identify Inhibitors of RecA-Intein Splicing Activity. [Related pubchem assays (depositor defined):AID2097, AID2223, AID489010, AID492950]; type: functional
# T4 sequence (P9WHJ3 whole entry): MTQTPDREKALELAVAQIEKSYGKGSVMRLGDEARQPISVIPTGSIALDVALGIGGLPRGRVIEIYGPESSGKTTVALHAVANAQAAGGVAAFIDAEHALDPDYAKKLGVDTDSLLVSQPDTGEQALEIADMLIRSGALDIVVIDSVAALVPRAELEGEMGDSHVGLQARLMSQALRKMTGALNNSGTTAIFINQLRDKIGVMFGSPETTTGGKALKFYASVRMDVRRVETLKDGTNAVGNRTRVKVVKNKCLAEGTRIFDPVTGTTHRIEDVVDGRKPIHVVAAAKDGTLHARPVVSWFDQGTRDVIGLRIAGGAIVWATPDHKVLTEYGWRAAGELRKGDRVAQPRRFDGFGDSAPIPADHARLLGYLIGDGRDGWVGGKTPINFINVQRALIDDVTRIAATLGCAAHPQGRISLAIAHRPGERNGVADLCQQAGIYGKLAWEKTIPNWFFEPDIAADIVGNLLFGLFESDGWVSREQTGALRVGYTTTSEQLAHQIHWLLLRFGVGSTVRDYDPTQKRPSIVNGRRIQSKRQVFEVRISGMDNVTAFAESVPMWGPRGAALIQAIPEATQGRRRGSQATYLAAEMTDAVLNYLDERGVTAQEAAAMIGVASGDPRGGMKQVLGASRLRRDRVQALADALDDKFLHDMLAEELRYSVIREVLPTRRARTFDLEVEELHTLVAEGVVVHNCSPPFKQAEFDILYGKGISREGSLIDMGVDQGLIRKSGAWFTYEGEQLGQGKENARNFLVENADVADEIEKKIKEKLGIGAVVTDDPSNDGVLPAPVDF
# [14] = target: Luciferin 4-monooxygenase (Photinus pyralis, UniProt P08659); test: firefly luciferase enzyme inhibitors, dose response, biochemical, luminescence (AID 1891)
# [15] = Luminescence Cell-Based Dose Confirmation HTS to Identify Inhibitors of Platelet Dense Granule Release. [Related pubchem assays: 1663 (Primary HTS), 1678 (Summary of Project)]; type: functional
# [16] = Fluorescence Cell-Based Dose Response to Identify Inhibitors of Thrombin Receptor-Activating Peptide SFLLRN-Mediated P-Selectin Induction on Platelets. [Related pubchem assays: 1663 (Primary HTS), 1889 (retest at dose ), 1891 (counterscreen), 1678 (Project Summary)]; type: functional
# [17] = target: Diphosphomevalonate decarboxylase (Streptococcus pneumoniae serotype 2 (strain D39 / NCTC 7466), UniProt Q9FD53); test: S. pneumoniae DPM-DC inhibition retest, confirmation, biochemical, cuvette format, coupled NADH fluorescence (AID 1028); type: functional
# [18] = target: T5, Tyrosine-protein phosphatase non-receptor type 7 (Homo sapiens, UniProt P35236); test: inhibitors of human HePTP phosphatase, […], biochemical, absorbance, leukemia target (AID 521); type: functional
# T5 sequence (P35236 whole entry): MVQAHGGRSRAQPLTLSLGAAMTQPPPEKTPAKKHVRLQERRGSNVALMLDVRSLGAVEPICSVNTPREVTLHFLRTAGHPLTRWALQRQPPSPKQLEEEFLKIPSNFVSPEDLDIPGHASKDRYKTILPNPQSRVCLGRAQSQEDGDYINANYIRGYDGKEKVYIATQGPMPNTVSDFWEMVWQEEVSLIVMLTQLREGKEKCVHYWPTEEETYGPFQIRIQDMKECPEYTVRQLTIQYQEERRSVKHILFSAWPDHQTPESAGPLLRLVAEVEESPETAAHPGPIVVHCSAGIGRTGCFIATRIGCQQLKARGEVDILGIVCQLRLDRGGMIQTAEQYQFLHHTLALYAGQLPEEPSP
# Cytochrome P450 1A2 = target: T6, Cytochrome P450 1A2 (Homo sapiens, UniProt P05177);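 note: PubChem cytochrome P450 panel assay, CYP1A2 panel member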
# T6 sequence (P05177 whole entry): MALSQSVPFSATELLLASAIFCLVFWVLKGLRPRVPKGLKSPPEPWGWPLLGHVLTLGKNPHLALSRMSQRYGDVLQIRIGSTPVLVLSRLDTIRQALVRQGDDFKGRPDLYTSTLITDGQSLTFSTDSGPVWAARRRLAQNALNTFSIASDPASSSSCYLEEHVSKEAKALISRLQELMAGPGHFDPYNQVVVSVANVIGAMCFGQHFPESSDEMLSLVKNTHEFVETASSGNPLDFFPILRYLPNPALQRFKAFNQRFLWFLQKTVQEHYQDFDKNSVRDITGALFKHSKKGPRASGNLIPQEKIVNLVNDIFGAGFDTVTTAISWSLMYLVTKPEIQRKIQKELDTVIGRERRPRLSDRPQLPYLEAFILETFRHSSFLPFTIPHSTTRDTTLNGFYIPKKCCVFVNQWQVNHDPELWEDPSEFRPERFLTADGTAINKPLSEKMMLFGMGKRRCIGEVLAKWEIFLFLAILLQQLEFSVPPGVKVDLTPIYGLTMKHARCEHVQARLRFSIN
# Sequence of Luciferin 4-monooxygenase (P08659 whole entry): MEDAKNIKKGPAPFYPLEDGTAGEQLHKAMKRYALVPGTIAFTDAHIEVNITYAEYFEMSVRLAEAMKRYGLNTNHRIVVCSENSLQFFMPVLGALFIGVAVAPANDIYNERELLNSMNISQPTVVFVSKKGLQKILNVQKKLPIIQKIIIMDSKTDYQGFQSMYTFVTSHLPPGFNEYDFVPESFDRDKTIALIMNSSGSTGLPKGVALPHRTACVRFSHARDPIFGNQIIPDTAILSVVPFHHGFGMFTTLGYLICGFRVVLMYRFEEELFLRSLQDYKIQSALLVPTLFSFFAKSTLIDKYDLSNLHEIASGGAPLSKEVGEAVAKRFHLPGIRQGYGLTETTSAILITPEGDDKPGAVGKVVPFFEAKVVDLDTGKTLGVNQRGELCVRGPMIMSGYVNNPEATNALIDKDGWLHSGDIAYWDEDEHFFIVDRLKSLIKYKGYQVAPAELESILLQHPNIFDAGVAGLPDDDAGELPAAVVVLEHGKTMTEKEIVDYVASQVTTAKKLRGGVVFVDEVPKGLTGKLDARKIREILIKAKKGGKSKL
# Sequence of DNA repair and recombination protein RAD54-like (Q92698 whole entry): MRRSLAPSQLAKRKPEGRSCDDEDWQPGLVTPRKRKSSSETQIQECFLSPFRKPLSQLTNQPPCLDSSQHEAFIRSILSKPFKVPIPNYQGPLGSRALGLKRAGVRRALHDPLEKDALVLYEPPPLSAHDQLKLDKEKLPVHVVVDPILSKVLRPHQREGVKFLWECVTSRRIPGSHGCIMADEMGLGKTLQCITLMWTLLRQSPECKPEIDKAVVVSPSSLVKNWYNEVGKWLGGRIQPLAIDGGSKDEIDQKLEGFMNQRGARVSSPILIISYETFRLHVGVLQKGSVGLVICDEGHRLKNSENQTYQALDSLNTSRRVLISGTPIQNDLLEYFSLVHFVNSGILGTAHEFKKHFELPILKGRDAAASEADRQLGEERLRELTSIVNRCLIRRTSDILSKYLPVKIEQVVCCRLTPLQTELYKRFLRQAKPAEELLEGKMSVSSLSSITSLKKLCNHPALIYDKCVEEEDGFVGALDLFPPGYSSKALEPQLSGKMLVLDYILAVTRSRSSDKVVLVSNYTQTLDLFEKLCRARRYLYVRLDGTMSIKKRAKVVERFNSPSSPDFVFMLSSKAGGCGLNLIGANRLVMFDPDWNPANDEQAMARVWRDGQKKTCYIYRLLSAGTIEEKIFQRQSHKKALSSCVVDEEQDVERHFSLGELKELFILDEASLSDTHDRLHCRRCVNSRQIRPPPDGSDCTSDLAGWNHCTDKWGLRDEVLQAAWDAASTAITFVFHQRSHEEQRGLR
# Sequence of Diphosphomevalonate decarboxylase (Q9FD53 whole entry): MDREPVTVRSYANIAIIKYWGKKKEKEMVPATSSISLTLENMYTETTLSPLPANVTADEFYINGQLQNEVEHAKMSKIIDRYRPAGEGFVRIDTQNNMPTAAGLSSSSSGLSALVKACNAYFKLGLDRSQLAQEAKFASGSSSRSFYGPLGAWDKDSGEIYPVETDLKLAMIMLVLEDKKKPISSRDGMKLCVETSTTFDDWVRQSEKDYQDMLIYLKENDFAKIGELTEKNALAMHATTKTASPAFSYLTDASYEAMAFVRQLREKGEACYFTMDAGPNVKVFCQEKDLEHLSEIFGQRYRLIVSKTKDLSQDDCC
# Sequence of Ephrin type-A receptor 4 (Q03137 whole entry): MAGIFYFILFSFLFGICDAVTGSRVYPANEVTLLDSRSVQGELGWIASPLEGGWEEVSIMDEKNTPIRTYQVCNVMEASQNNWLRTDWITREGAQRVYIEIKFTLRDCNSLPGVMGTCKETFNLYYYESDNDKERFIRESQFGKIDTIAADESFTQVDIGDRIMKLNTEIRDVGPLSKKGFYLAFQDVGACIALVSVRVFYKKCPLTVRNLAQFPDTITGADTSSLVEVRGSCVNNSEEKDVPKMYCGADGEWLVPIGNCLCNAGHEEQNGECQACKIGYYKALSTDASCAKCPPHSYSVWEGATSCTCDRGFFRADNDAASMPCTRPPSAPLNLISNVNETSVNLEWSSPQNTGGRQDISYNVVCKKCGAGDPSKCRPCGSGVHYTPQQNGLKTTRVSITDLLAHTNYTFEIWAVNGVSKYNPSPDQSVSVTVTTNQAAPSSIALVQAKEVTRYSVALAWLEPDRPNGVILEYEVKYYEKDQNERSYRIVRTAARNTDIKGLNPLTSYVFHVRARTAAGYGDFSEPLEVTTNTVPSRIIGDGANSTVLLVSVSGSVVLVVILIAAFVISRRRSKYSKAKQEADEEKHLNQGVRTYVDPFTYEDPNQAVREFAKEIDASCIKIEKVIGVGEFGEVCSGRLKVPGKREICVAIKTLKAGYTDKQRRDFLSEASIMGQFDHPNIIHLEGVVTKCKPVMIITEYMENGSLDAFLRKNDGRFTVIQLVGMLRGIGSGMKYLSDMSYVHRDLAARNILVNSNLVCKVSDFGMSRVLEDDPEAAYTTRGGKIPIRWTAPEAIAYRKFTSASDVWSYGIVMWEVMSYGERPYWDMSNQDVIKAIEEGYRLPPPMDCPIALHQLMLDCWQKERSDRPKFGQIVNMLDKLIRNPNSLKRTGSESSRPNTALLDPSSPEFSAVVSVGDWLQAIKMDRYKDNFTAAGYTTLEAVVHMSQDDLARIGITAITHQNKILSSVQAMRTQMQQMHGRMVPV
compound,measurement,setting,value
CCn1c(SCc2nc(-c3ccccc3)no2)nnc1-c1cccs1,IC50,Ephrin type-A receptor 4,> 100 µM (not active)
same,IC50,[1],15.1 µM (active)
COC(=O)c1c(-c2ccccc2)csc1NC(=O)c1c(-c2ccccc2)noc1C,CC50,[2],6.35 µM (active)
same,CC50,Vero [3],10.1 µM (active)
same,IC50,Vero [4],41.3 µM (active)
same,IC50,Vero [5],0.8 µM (active)
same,IC50,cells,3.07 µM (active)
CC1CCCN(CCCNC(=O)c2cc3c(Cl)nc4ccccc4c3s2)C1 (stereo not given),IC50,[6],0.934 µM (active)
same,EC50,[7],1.4 µM (active)
same,EC50,[8],6.28 µM (active)
same,AC50,[9],8.01 µM (active)
same,AC50,[10],9.98 µM (active)
Cc1cccc(CSc2nc3c(c(-c4cccs4)c2C#N)CN(C)CC3)c1,IC50,[11],> 100 µM (active)
same,EC50,[7],0.101 µM (active)
same,EC50,[8],> 60 µM (not active)
same,IC50,[12],> 50 µM (not active)
same,AC50,[13],16.5 µM (active)
same,EC50,Protein RecA,0.503 µM (active)
COC(=O)C(C)Sc1nc2c(c(=O)[nH]c(=O)n2C)n1CCCc1ccccc1 (stereo not given),EC50,[14],> 112 µM (not active)
same,EC50,[15],6.52 µM (active)
same,EC50,[16],< 30 µM (active)
same,IC50,[1],12.6 µM (active)
O=C(NCc1ccco1)c1ccc(-n2sc3ccccc3c2=O)cc1,IC50,[17],4.68 µM (active)
Cc1c(NC(=O)CN2C(=O)C3C4C=CC(C4)C3C2=O)c(=O)n(-c2ccccc2)n1C (stereo not given),IC50,[18],> 100 µM (not active)
same,AC50,Cytochrome P450 1A2,39.8 µM (inconclusive)
